For data set [1], the system named is NZB5. The data set is described as follows: Cellular growth inhibition, NZB5 (3H-thymidine incorporation). In kind it is cell-based, human. The method, then: (§1) The compounds were evaluated against two early passage human cell lines NZB5 and NZOV9 (Marshall et al., Oncol. Res. 2004, 14, 297). The cells were grown in ITS medium (α-modified minimal essential medium supplemented insulin, transferrin, selenite, and 5% fetal bovine serum) and grown on 96-well tissue culture plates under an atmosphere of 5% O2, 5% CO2, and 90% N2. Individual wells contained 500-1,000 cells (depending on the growth rate) in a volume of 150 μL. Compounds were added at 10-fold concentration steps to a maximum of 20 μM and plates were incubated for five days, with ^3H-thymidine being added over the last 6 hrs. Cells were harvested and incorporated radioactivity measured. Duplicate samples were analyzed for each compound dose with multiple control samples.
(Uptake of a labelled nucleoside into DNA is a usual measure of proliferation.)

In data set [2] the test system is NZOV9. Kind of data set: Cellular growth inhibition, NZOV9 (3H-thymidine incorporation). In kind it is cell-based, human. The method, then: as §1
Data set [3] deals with p110α/p85 (Homo sapiens, UniProt P42336). Kind of data set: Inhibition of isolated enzyme p110α/p85 (lipid kinase, [γ-33P]ATP, TLC). In kind it is biochemical. The conditions noted are these: recombinant enzyme, 100 μM ATP, nine concentrations, average of two experiments. The method, then:
(§2) Compounds were evaluated for their ability to inhibit Class I PI 3-kinase enzymes p110δ/p85, p110α/p85, and p110β/p85. Reaction mixtures comprising 0.1 μg of a recombinant enzyme, 10 μg of L-α-phosphatidylinositol, and 2× Lipid Kinase Buffer (40 mM Tris-HCl, pH 7.4, 200 mM NaCl, 1 mM EDTA), which contains either DMSO only as a control or the test compound in DMSO (the final DMSO concentration is 1%), were activated by the addition of an ATP mix (5 mM MgCl2, 100 μM ATP, and 0.1 μL [γ^33P]ATP). Reactions were incubated at room temperature for 1 hr, and then stopped by the addition of 1M HCl. The lipids were then extracted using a two step procedure. Firstly, 200 μL of chloroform/methanol (1:1) was added, the biphasic reactions mixed and centrifuged briefly, and the inorganic phase was removed and discarded. Following this, 80 μL of methanol:HCl (1:1) was added and the same procedure followed. The organic phase (70 μL) was then transferred to a clean 1.6 mL tube and the reactions were dried using a Speedvac, with no heating, for 30 min. The reactions were spotted onto TLC plates (Merck Ltd) and developed for 1 hr in propanol-1:2 M acetic acid (13:7). The TLC plates were then dried at room temperature and quantified using a phosphorimager (StormImager, Amersham). Nine compound concentrations were used for each test compound to determine its IC50 value. Each experiment was performed twice and the average IC50 value is used herein.

The target in data set [4] is p110δ/p85 (Homo sapiens, UniProt O00329). The data set is described as follows: Inhibition of isolated enzyme p110δ/p85 (lipid kinase, [γ-33P]ATP, TLC). The class given is biochemical. The conditions noted are these: recombinant enzyme, 100 μM ATP, nine concentrations, average of two experiments. The method, then:
as §2

The mark [5] stands for this setting: Homo sapiens, NZB5, read-out: Cell IC50 NZB5.
Where [6] appears, read: Homo sapiens, NZOV9, read-out: Cell IC50 NZOV9.
Where [7] appears, read: Homo sapiens, NZB5, five days incubation, 3H-thymidine over the last 6 hrs, read-out: Cell IC50 NZB5.
Setting [8] is: Homo sapiens, NZOV9, five days incubation, 3H-thymidine over the last 6 hrs, read-out: Cell IC50 NZOV9.

Here are results for 17 compounds from patent publication US8772287B2, “Pyrimidinyl and 1,3,5-triazinyl benzimidazole sulfonamides and their use in cancer therapy” (VetDC, Inc., priority 2009, dated 2014).

Broadly, the IC50 is the concentration at which inhibition is half-maximal. Broadly, the melting point is the temperature of the solid-liquid transition.

The structures appear in SMILES notation. Where two headings read alike, the source gives them in different places. Bounds are passed on as bounds.

Sequence of p110α/p85 (P42336 whole entry): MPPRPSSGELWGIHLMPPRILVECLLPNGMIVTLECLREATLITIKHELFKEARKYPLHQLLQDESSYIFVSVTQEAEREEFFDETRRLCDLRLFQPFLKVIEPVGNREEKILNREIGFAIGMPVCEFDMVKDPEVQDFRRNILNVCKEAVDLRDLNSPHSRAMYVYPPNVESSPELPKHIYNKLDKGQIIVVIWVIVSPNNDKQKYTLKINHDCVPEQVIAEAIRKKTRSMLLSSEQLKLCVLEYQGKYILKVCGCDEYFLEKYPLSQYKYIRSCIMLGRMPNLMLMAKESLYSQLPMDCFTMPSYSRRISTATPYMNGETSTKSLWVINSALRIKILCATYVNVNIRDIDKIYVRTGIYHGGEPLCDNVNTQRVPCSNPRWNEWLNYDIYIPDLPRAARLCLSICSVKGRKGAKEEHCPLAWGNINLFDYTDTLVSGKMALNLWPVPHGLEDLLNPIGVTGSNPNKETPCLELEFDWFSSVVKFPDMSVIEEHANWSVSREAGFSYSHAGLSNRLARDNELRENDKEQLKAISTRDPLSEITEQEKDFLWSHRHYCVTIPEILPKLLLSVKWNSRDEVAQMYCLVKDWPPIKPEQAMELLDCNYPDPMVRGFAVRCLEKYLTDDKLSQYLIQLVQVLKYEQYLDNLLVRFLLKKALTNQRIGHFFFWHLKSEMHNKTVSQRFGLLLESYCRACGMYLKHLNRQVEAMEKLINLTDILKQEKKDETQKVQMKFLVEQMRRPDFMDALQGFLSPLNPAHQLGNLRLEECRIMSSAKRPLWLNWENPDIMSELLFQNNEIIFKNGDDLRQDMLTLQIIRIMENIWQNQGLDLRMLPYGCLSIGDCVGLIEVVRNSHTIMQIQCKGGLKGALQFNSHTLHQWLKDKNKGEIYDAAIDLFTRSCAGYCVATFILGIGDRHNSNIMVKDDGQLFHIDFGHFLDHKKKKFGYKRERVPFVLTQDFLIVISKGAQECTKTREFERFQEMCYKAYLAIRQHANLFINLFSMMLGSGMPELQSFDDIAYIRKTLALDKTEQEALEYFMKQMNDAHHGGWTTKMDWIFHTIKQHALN
Sequence of p110α/p85 (P27986 whole entry partner): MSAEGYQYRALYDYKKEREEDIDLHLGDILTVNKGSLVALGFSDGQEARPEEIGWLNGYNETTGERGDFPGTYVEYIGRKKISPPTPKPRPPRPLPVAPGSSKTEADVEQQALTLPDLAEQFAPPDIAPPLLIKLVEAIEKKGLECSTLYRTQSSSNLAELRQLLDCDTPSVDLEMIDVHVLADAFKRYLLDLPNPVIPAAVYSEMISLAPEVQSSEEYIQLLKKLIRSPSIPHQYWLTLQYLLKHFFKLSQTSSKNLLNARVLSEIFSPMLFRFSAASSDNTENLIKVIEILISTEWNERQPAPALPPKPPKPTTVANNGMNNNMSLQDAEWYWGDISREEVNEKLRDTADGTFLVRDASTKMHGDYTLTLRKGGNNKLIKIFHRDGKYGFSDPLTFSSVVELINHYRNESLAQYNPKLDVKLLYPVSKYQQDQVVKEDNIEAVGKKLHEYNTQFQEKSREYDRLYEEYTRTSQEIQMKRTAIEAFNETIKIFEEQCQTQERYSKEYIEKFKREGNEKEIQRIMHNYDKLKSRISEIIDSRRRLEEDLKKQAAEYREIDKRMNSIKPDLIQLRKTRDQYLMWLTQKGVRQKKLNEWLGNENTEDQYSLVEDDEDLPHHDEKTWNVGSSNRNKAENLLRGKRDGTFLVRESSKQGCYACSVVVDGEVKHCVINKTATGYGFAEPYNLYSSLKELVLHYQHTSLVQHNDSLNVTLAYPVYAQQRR
Sequence of p110δ/p85 (O00329 whole entry, species assumed): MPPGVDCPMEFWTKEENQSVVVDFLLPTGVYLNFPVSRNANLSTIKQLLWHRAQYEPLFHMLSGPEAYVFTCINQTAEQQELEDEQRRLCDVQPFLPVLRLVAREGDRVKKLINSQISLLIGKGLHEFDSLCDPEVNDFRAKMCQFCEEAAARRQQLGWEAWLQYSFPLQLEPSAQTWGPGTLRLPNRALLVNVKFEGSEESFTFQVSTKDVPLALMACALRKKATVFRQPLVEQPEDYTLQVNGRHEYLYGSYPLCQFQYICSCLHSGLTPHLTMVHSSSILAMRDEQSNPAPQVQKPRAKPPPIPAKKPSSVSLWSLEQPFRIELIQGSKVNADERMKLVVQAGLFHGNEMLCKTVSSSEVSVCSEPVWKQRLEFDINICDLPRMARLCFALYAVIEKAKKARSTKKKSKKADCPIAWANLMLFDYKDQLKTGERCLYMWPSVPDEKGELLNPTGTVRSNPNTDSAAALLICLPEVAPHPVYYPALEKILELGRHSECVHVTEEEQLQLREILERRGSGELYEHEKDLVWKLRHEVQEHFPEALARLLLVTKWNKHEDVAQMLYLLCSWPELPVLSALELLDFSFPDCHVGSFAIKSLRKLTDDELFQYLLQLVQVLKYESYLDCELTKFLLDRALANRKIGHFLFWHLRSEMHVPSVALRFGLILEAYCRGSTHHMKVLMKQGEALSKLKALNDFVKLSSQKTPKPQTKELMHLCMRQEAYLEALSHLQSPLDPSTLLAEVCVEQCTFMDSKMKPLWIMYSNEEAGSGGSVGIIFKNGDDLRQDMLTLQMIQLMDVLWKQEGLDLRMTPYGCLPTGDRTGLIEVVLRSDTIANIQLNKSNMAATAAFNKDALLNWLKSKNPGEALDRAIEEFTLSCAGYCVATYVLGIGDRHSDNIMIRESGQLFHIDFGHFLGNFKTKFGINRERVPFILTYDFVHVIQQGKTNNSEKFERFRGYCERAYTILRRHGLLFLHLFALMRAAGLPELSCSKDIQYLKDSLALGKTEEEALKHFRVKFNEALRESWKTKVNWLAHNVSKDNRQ
Sequence of p110δ/p85 (P27986 whole entry partner, species assumed): as the sequence (P27986 whole entry partner) above

Regarding `COc1cccc2c1nc(C(F)F)n2-c1nc(N[C@H]2CC[C@H](NS(C)(=O)=O)CC2)nc(N2CCOCC2)n1` [Example 78, trans-N-(4-{[4-[2-(difluoromethyl)-4-methoxy-1H-benzimidazol-1-yl]-6-(4-morpholinyl)-1,3,5-triazin-2-yl]amino}cyclohexyl)methanesulfonamide], the melting point was 269 to 272 °C. Further, the IC50 in data set [1] (setting [5]) was in the range of 100 to 1000 nM. For the same compound, the IC50 in data set [2] (setting [6]) was below 100 nM.

The compound `COc1cccc2c1nc(C(F)F)n2-c1nc(N2CCOCC2)nc(N2CCC(NS(=O)(=O)CCl)CC2)n1` [Example 61, chloro-N-{1-[4-[2-(difluoromethyl)-4-methoxy-1H-benzimidazol-1-yl]-6-(4-morpholinyl)-1,3,5-triazin-2-yl]-4-piperidinyl}methanesulfonamide] registered a melting point of 230 to 232 °C. Besides, the IC50 in data set [3] is below 100 nM. The IC50 in data set [4] is below 100 nM.

In turn, `COc1cccc2c1nc(C(F)F)n2-c1nc(Nc2ccc(NS(C)(=O)=O)nc2)nc(N2CCOCC2)n1` [Example 100, N-(5-{[4-[2-(difluoromethyl)-4-methoxy-1H-benzimidazol-1-yl]-6-(4-morpholinyl)-1,3,5-triazin-2-yl]amino}-2-pyridinyl)methanesulfonamide] gave a melting point of 302 to 306 °C. The IC50 in data set [3] is below 100 nM. In data set [1] (setting [7]), the IC50 was in the range of 100 to 1000 nM. Moreover, in data set [4], the IC50 was below 100 nM. Also, in data set [2] (setting [8]), the concentration for half-maximal inhibition (IC50) is below 100 nM.

Consider `COc1cccc2c1nc(C(F)F)n2-c1nc(N[C@H]2CCCN(S(C)(=O)=O)C2)nc(N2CCOCC2)n1` [Example 42, 4-[2-(difluoromethyl)-4-methoxy-1H-benzimidazol-1-yl]-N-[(3S)-1-(methylsulfonyl)piperidinyl]-6-(4-morpholinyl)-1,3,5-triazin-2-amine], for which the melting point fell in the range of 239 to 241 °C. For the same compound, in data set [1] (read-out: Cell IC50 NZB5, five days incubation, 3H-thymidine over the last 6 hrs), the IC50 was in the range of 100 to 1000 nM. Also, the IC50 in data set [2] (read-out: Cell IC50 NZOV9, five days incubation, 3H-thymidine over the last 6 hrs) is below 100 nM.

Regarding `COc1cccc2c1nc(C(F)F)n2-c1nc(-c2ccc(S(=O)(=O)N3CCN(C)CC3)cc2)nc(N2CCOCC2)n1` [Example 95, 2-(difluoromethyl)-4-methoxy-1-[4-{4-[(4-methyl-1-piperazinyl)sulfonyl]phenyl}-6-(4-morpholinyl)-1,3,5-triazin-2-yl]-1H-benzimidazole], the IC50 in data set [4] is above 1000 nM.

Regarding `COc1cccc2c1nc(C(F)F)n2-c1nc(N2CCOCC2)nc(N2CCC(N(C)S(C)(=O)=O)C2)n1` (stereo in doubt) [Example 39, N-{(3S)-1-[4-[2-(difluoromethyl)-4-methoxy-1H-benzimidazol-1-yl]-6-(4-morpholinyl)-1,3,5-triazin-2-yl]pyrrolidinyl}-N-methylmethanesulfonamide], the melting point fell in the range of 244 to 247 °C. In addition, the concentration for half-maximal inhibition (IC50) in data set [1] (setting [5]) lay in the range of 100 to 1000 nM. Further, the 50% inhibitory concentration (IC50) in data set [2] (setting [6]) is below 100 nM.

`COc1cccc2c1nc(C(F)F)n2-c1nc(N2CCOCC2)nc(N2CCCC(N(C)S(C)(=O)=O)C2)n1` (stereo in doubt) [Example 45, N-{(3R)-1-[4-[2-(difluoromethyl)-4-methoxy-1H-benzimidazol-1-yl]-6-(4-morpholinyl)-1,3,5-triazin-2-yl]piperidinyl}-N-methylmethanesulfonamide] returned a melting point of 224 to 226 °C. Also, in data set [1] (setting [5]), the IC50 lay within 100 to 1000 nM. Also, the IC50 in data set [2] (setting [6]) is below 100 nM.

For the compound `COc1cccc2c1nc(C(F)F)n2-c1nc(N2CCOCC2)nc(N2CCC(N(C)S(C)(=O)=O)C2)n1` (stereo in doubt) [Example 37, N-{(3R)-1-[4-[2-(difluoromethyl)-4-methoxy-1H-benzimidazol-1-yl]-6-(4-morpholinyl)-1,3,5-triazin-2-yl]pyrrolidinyl}-N-methylmethanesulfonamide], the melting point lay within 242 to 244 °C. The IC50 in data set [1] (setting [5]) was 100 to 1000 nM. The half-inhibitory concentration (IC50) in data set [2] (setting [6]) is below 100 nM.

As for `COc1cccc2c1nc(C(F)F)n2-c1nc(N2CCOCC2)nc(N2CCC(NS(=O)(=O)C(F)(F)F)CC2)n1` [Example 87, N-{1-[4-[2-(difluoromethyl)-4-methoxy-1H-benzimidazol-1-yl]-6-(4-morpholinyl)-1,3,5-triazin-2-yl]-4-piperidinyl}trifluoromethanesulfonamide], the melting point fell in the range of 282 to 285 °C. For the same compound, the half-inhibitory concentration (IC50) in data set [3] was below 100 nM. In addition, the IC50 in data set [4] fell in the range of 100 to 1000 nM.

Turning to `COc1cccc2c1nc(C(F)F)n2-c1nc(N2CCOCC2)nc(N(C)[C@@H]2CCN(S(C)(=O)=O)C2)n1` [Example 33, 4-[2-(difluoromethyl)-4-methoxy-1H-benzimidazol-1-yl]-N-methyl-N-[(3R)-1-(methylsulfonyl)pyrrolidinyl]-6-(4-morpholinyl)-1,3,5-triazin-2-amine], the melting point was in the range of 238 to 240 °C. In addition, the IC50 in data set [1] (setting [5]) was below 100 nM. Further, the IC50 in data set [2] (setting [6]) is below 100 nM.

The compound `COc1cccc2c1nc(C(F)F)n2-c1nc(N[C@@H]2CCCN(S(C)(=O)=O)C2)nc(N2CCOCC2)n1` [Example 40, 4-[2-(difluoromethyl)-4-methoxy-1H-benzimidazol-1-yl]-N-[(3R)-1-(methylsulfonyl)piperidinyl]-6-(4-morpholinyl)-1,3,5-triazin-2-amine] registered a melting point of 241 to 243 °C. Moreover, the IC50 in data set [1] (setting [5]) was in the range of 100 to 1000 nM. Moreover, in data set [2] (setting [6]), the IC50 is below 100 nM.

The compound `COc1cccc2c1nc(C(F)F)n2-c1nc(N2CCOCC2)nc(N2CCCC(N(C)S(C)(=O)=O)C2)n1` (stereo in doubt) [Example 47, N-{(3S)-1-[4-[2-(difluoromethyl)-4-methoxy-1H-benzimidazol-1-yl]-6-(4-morpholinyl)-1,3,5-triazin-2-yl]piperidinyl}-N-methylmethanesulfonamide] came in with a melting point of 221 to 223 °C. For the same compound, the IC50 in data set [1] (setting [5]) lay in the range of 100 to 1000 nM. Also, in data set [2] (setting [6]), the IC50 was below 100 nM.

Regarding `COc1cccc2c1nc(C(F)F)n2-c1nc(N2CCOCC2)nc(N2CCCC(NS(C)(=O)=O)C2)n1` (stereo in doubt) [Example 44, N-{(3R)-1-[4-[2-(difluoromethyl)-4-methoxy-1H-benzimidazol-1-yl]-6-(4-morpholinyl)-1,3,5-triazin-2-yl]piperidinyl}methanesulfonamide], the melting point lay in the range of 220 to 221 °C. For the same compound, the half-maximal inhibitory concentration (IC50) in data set [1] (setting [5]) is 100 to 1000 nM. In addition, the IC50 in data set [2] (setting [6]) is below 100 nM.

`COc1cccc2c1nc(C(F)F)n2-c1nc(N2CCOCC2)nc(N2CCN(S(=O)(=O)C(F)(F)F)CC2)n1` [Example 86, 2-(difluoromethyl)-4-methoxy-1-(4-(4-morpholinyl)-6-{4-[(trifluoromethyl)-sulfonyl]-1-piperazinyl}-1,3,5-triazin-2-yl)-1H-benzimidazole] gave a melting point of 272 to 273 °C. Besides, the IC50 in data set [3] lay in the range of 100 to 1000 nM. In data set [4], the IC50 was above 1000 nM.

As for `COc1cccc2c1nc(C(F)F)n2-c1nc(OC2CCN(S(=O)(=O)CCN3CCN(S(C)(=O)=O)CC3)CC2)nc(N2CCOCC2)n1` [Example 52, 2-(difluoromethyl)-4-methoxy-1-[4-{[1-({2-[4-(methylsulfonyl)-1-piperazinyl]ethyl}sulfonyl)-4-piperidinyl]oxy}-6-(4-morpholinyl)-1,3,5-triazin-2-yl]-1H-benzimidazole], the melting point lay within 251 to 254 °C. Besides, the IC50 in data set [1] (setting [7]) was above 1000 nM. The IC50 in data set [2] (setting [8]) was above 1000 nM.

Regarding `COc1cccc2c1nc(C(F)F)n2-c1nc(N2CCOCC2)nc(N2CCC(NS(C)(=O)=O)C2)n1` (stereo in doubt) [Example 36, N-{(3R)-1-[4-[2-(difluoromethyl)-4-methoxy-1H-benzimidazol-1-yl]-6-(4-morpholinyl)-1,3,5-triazin-2-yl]pyrrolidinyl}methanesulfonamide], the melting point was in the range of 290 to 292 °C. Also, the IC50 in data set [1] (setting [5]) lay in the range of 100 to 1000 nM. Further, the IC50 in data set [2] (setting [6]) is below 100 nM.

As for `COc1cccc2c1nc(C(F)F)n2-c1nc(N2CCOCC2)nc(N2CC(NS(=O)(=O)C(F)(F)F)C2)n1` [Example 88, N-{1-[4-[2-(difluoromethyl)-4-methoxy-1H-benzimidazol-1-yl]-6-(4-morpholinyl)-1,3,5-triazin-2-yl]-3-azetidinyl}(trifluoro)methanesulfonamide], the IC50 in data set [3] was below 100 nM; in data set [4] it was 100 to 1000 nM.
